Source: paper PMC4109836, “Analysis of the co-operative interaction between the allosterically regulated proteins GK and GKRP using tryptophan fluorescence” (Biochemical Journal, 2014)
Numbering of substitutions follows the chain as printed. Names and notes keep the numbering of the source. Like-named read-outs stand apart in the source and are kept apart here.

How the values were obtained:
[1] = target: T1, GK-W99R/W167F/W257F (Homo sapiens, UniProt P35557, W167F/W257F/W99R); set-up: method as in ref 4 (a number printed in a supplementary file, which may have a reference list of its own: not looked up in the article's list); conditions: read-out: ATP Km; cited from earlier work
T1 construct: GST (cleaved yes); made in house; host or cells: Escherichia coli
T1 sequence (P35557 1-465 W99R/W167F/W257F): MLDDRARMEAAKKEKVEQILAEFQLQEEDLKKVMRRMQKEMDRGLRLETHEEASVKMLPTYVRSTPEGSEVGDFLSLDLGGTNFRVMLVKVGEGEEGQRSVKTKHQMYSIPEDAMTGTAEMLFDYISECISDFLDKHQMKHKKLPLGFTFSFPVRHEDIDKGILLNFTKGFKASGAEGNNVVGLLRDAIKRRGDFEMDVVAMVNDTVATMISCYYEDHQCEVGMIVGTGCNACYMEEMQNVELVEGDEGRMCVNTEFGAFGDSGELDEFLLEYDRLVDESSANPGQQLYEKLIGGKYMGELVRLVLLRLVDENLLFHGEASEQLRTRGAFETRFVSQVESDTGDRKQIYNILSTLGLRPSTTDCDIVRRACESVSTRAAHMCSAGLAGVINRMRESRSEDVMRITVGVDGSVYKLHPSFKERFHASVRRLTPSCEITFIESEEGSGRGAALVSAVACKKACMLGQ

[2] = target: T2, GK-WT (Homo sapiens, UniProt P35557); set-up: method as in ref 4 (a number printed in a supplementary file, which may have a reference list of its own: not looked up in the article's list); conditions: read-out: ATP Km; cited from earlier work
T2 construct: GST (cleaved yes); made in house; host or cells: Escherichia coli
T2 sequence (P35557 1-465): T1 sequence (P35557 1-465 W99R/W167F/W257F) with R99W, F167W, F257W

[3] = target: T3, GKRP-WT (Homo sapiens, UniProt Q14397); experiment: Ligand binding to free GKRP-WT measured by TF of GKRP; conditions: ligand alone; for H (Hill number) / ΔF (relative fluorescence change at 340 nm) / Kd: 0.3 μM GKRP-WT, 20°C; for Kd: read-out: S0.5
T3 construct: FLAG; made in house; host or cells: Escherichia coli
T3 sequence (Q14397 1-625): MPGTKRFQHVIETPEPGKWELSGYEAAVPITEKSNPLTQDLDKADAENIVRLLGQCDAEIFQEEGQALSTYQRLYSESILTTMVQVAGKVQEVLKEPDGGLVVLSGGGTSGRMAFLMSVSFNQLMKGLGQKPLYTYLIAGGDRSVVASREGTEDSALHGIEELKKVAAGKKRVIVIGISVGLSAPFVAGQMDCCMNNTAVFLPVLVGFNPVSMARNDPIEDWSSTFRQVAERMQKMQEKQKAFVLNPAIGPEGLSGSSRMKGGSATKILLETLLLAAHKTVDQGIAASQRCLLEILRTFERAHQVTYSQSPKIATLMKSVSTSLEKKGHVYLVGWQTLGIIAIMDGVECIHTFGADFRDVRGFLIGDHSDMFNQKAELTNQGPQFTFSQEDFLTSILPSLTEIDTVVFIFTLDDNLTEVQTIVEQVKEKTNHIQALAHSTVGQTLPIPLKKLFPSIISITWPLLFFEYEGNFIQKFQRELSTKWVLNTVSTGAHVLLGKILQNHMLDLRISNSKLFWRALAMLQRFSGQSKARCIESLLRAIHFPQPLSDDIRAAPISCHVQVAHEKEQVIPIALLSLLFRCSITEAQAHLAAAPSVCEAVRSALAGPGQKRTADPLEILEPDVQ

[4] = target: T4, GKRP-P446L (Homo sapiens, UniProt Q14397, P446L); experiment: Ligand binding to free GKRP-P446L measured by TF of GKRP; conditions: ligand alone; for H (Hill number) / ΔF (relative fluorescence change at 340 nm) / Kd: 0.3 μM GKRP-P446L, 20°C; for Kd: read-out: S0.5
T4 construct: FLAG; made in house; host or cells: Escherichia coli
T4 sequence (Q14397 1-625 P446L): T3 sequence (Q14397 1-625) with P446L

[5] = target: T5, hGKRP (0.3 μM)–GK-W99R/W167F/W257F (1 μM) complex, GKRP-WT (Homo sapiens, UniProt P35557+Q14397, W167F/W257F/W99R); experiment: Ligand binding by / disassembly of GKRP-WT–GK-W99R/W167F/W257F complex by TF of hGKRP; conditions: ligand titration of 3:1 GK–GKRP-WT complex, 20°C
T5 construct: FLAG; GST (cleaved yes); made in house; host or cells: Escherichia coli
T5 sequence (Q14397 1-625): T3 sequence (Q14397 1-625)
T5 sequence (P35557 1-465 W99R/W167F/W257F): T1 sequence (P35557 1-465 W99R/W167F/W257F)
Description: (§1) Spectra were measured with a Fluorolog-3-21 Jobin-Yvon Spex Instrument SA equipped with a 450 W Xenon lamp for excitation and a cooled R2658P Hamamatsu photomultiplier tube for detection. For all measurements, 90° geometry was employed and 295 nm excitation wavelengths were used to observe fluorescence emission in the 300–500 nm range. For TF, spectra slit width was set to provide a bandpath of 3 nm for excitation and 3 nm for emission. Spectra were corrected for instrumental response using Spex instrument software. A thermostatically controlled cell holder maintained sample temperature at 20°C. A thermocoupler was used to measure sample temperature. The buffer used contained 20 mM phosphate, 50 mM KCl, 1 mM EDTA and 1 mM DTT (pH 7.2).
(§2) Fluorescence data were obtained via the stepwise addition of the appropriate amount of non-fluorescent GK-W99R/W167F/W257F to GKRP in a fluorescence cuvette. […] The change in GKRP protein fluorescence during titration was also measured using time-dependent scans. A manual procedure was used such that a typical titration with 10–12 additions required 20–25 min to perform. The same buffer as described above was routinely used unless stated otherwise. The bandpath was 0.5 nm at 295 nm for excitation and 12 nm at 340 nm for emission. […] For some graphical presentations the linear form of the Hill equation was used: log[F/(Fsat−F)]=H log x−H log KD [46].

[6] = target: T6, hGKRP (0.3 μM)–GK-W99R/W167F/W257F (1 μM) complex, GKRP-P446L (Homo sapiens, UniProt P35557+Q14397, P446L/W167F/W257F/W99R); experiment: Ligand binding by / disassembly of GKRP-P446L–GK-W99R/W167F/W257F complex by TF of hGKRP; conditions: ligand titration of 3:1 GK–GKRP-P446L complex, 20°C
T6 construct: FLAG; GST (cleaved yes); made in house; host or cells: Escherichia coli
T6 sequence (Q14397 1-625 P446L): T3 sequence (Q14397 1-625) with P446L
T6 sequence (P35557 1-465 W99R/W167F/W257F): T1 sequence (P35557 1-465 W99R/W167F/W257F)
Description: as §1, §2

[7] = target: T7, GKRP-WT (Homo sapiens, UniProt P35557+Q14397, W167F/W257F/W99R); experiment: Titration of GKRP-WT with GK-W99R/W167F/W257F (GK–GKRP complex assembly) by TF; type: binding; conditions: saturating levels of F6P;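 also: tryptophan fluorescence of GKRP titrated with GK, excitation 295 nm, emission read at 340 nm, phosphate buffer pH 7.2, Hill equation fitting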
T7 construct: FLAG; GST (cleaved yes); made in house; host or cells: Escherichia coli
T7 sequence (Q14397 1-625): T3 sequence (Q14397 1-625)
T7 sequence (P35557 1-465 W99R/W167F/W257F): T1 sequence (P35557 1-465 W99R/W167F/W257F)

[8] = target: T8, GKRP-P446L (Homo sapiens, UniProt P35557+Q14397, P446L/W167F/W257F/W99R); experiment: Titration of GKRP-P446L with GK-W99R/W167F/W257F (GK–GKRP complex assembly) by TF; type: binding; conditions: saturating levels of F6P
T8 construct: FLAG; GST (cleaved yes); made in house; host or cells: Escherichia coli
T8 sequence (Q14397 1-625 P446L): T3 sequence (Q14397 1-625) with P446L
T8 sequence (P35557 1-465 W99R/W167F/W257F): T1 sequence (P35557 1-465 W99R/W167F/W257F)
Description: as §1, §2

[9] = target: T2, GK-WT; set-up: method as in ref 18 (a number printed in a supplementary file, which may have a reference list of its own: not looked up in the article's list); conditions: read-out: Kd for MH, cited from earlier work
[10] = tested on: subjects with T2D; set-up: method as in PMID 21994424; conditions: cited from earlier work
[11] = Structural stability from urea denaturation curves (TF); type: physicochemical, human; conditions: buffer pH 7.2, 20°C; ±0.05

Nc1ncnc2c1ncn2[C@@H]1O[C@H](COP(=O)(O)OP(=O)(O)OP(=O)(O)O)[C@@H](O)[C@H]1O [ATP]
Km [1]: 1960 µM
Km [2]: 490 µM

O=C(COP(=O)([O-])[O-])[C@@H](O)[C@H](O)[C@H](O)CO.[Na+].[Na+] [F1P, D-fructose 1-phosphate sodium salt]
H (Hill number) [3]: 1
ΔF (relative fluorescence change at 340 nm) [3]: −0.04
Kd [3]: 65 µM
effect on the TF signal of GKRP-WT [3]: decrease
H (Hill number) [4]: 1
ΔF (relative fluorescence change at 340 nm) [4]: −0.08
Kd [4]: 139 µM
effect on the TF signal of GKRP-P446L [4]: decrease
H [5]: 1
ΔF (relative fluorescence change at 340 nm) [5]: −0.086
Kd ([5]; read-out: Kd (apparent)): 127 µM
H [6]: 1
ΔF (relative fluorescence change at 340 nm) ([6]; glucose curve biphasic (two phases)): −0.095
Kd ([6]; read-out: Kd (apparent)): 298 µM

O=C(CO)[C@@H](O)[C@H](O)[C@H](O)COP(=O)([O-])[O-].[Na+].[Na+] [F6P, D-fructose 6-phosphate disodium salt]
H (Hill number) [3]: 3.6
ΔF (relative fluorescence change at 340 nm) [3]: 0.04
Kd [3]: 278 µM
effect on the TF signal of GKRP-WT [3]: increase
H (Hill number) [4]: 2.94
ΔF (relative fluorescence change at 340 nm) [4]: 0.07
Kd [4]: 242 µM
effect on the TF signal of GKRP-P446L [4]: increase
effect on the binding of GKRP-WT to GK [7]: no significant effect
effect on the binding of GKRP-P446L to GK [8]: increased the affinity of GKRP-P446L for GK

O=C(CO)[C@@H](O)[C@@H](O)[C@H](O)[C@H](O)CO [MH, D-mannoheptulose]
Kd ([9]; in the presence of GKA (20 μM)): 1000 µM
Kd ([9]; without GKA): 17000 µM

CCS(=O)(=O)c1ccc(Oc2cc(O[C@@H](C)CO)cc(C(=O)Nc3ccn(C)n3)c2)cn1 [MK0941]
clinical effect, higher doses ([10]; higher doses of the drug): fast-onset transient effects associated with an increase in blood lipids and cardiovascular side effects
clinical effect, low dose ([10]; low dose of the drug): slow-onset long-lasting beneficial effect

B1: GKRP-WT: recombinant human wild-type GK regulatory protein (protein)
chain: T3 sequence (Q14397 1-625)
modifications: left off: FLAG, end not stated, state not stated
notes: recombinant human wild-type GK regulatory protein
ΔG(H2O) from urea denaturation curves [11]: 1.56 kcal/mol

B2: GKRP-P446L: recombinant human GKRP variant P446L (protein)
chain: T3 sequence (Q14397 1-625) with P446L
modifications: left off: FLAG, end not stated, state not stated
ΔG(H2O) from urea denaturation curves [11]: 1.55 kcal/mol
